Values joined by “and” are separate entries in the source; they are usually repeats but may differ in a detail not shown here. Equal entries are not always repeated.
Target: T1, SV2A (Macaca fascicularis, UniProt Q4R4X3)
T1 construct: The current study evaluates [^18F]UCB-H pharmacokinetics in healthy NHPs; from tissue; host or cells: brain of living healthy cynomolgus monkeys (in vivo PET)
Experiment: Brain PET kinetic modelling (1TCM, 2TCM, 2TCM-c, Logan), test-retest
Type: in vivo, cynomolgus monkeys (Macaca fascicularis)
Protocol: All four non-human primates (NHP) underwent a 2-h (2 h) test and retest PET scan; two NHP underwent an additional 4-h (4 h) retest PET scan. Three NHP underwent one 4-h (4 h) displacement PET scan. Arterial blood sampling was performed during test and retest scans with PET imaging spaced by at least 3 weeks between each scan. To this end, the femoral artery opposite to the saphenous vein used for radioligand injection was cannulated. For the 2-h (2 h) scans, we collected in total 28 blood samples of 1 mL: 16 samples during the first 5 min followed by […] every 5 min and […] every 10 min. For the 4 h scans, we collected an additional 6 samples every 20 min during the last two hours (34 samples in total). Larger samples (2 – 3 mL) were collected at 5, 15, 30, 60, 90, 120 min (2 h) and at 180, 240 min (4 h) for metabolite analysis. Displacement of [^18F]UCB-H was done by intravenous (IV) administration 90 min after [^18F]UCB-H injection of a bolus of 30 mg/kg LEV, or of 80 µg/kg (≈250 nmol/kg) or 5 mg/kg (≈15 µmol/kg) of cold [^19F]-UCB-H. Full experimental design of all NHP is outlined in Additional file 1: Table 1.
PET imaging was performed on the microPET FOCUS220 (Siemens) under standard anesthesia and monitoring procedures. Data acquisition started with the IV bolus injection of [^18F]UCB-H (32.9 ± 1.0 MBq/kg, 0.35 ± 0.07 µg/kg). Dynamic PET images were reconstructed using standard OSEM-2D algorithms while correcting for radioactive decay, scatter, attenuation and detectors inhomogeneity, which were measured prior to PET scanning using respectively ^57Co and ^68Ge external sources.
PET image analysis was performed using PMOD software version 3.8 (PMOD Technologies Ltd., Zurich, Suisse). After individual co-registration of PET-MR images, a cynomolgus atlas published by Ballanger and coworkers was normalized to PET images to extract time activity curves in different brain regions. Volumes of interest (VOI) were cerebral white matter (16.7 cm^3), striatum (0.24 cm^3), thalamus (0.89 cm^3), cerebellum (3.83 cm^3), frontal—(2.50 cm^3), parietal—(5.35 cm^3), and temporal (8.22 cm^3) cortex, and whole brain (72.2 cm^3) as a composite region of all regions in the atlas. [^18F]UCB-H pharmacokinetics were evaluated by analyzing the time activity curves of the test- and retest scans using 1- and 2-tissue compartment models (unconstrained and constrained with global K1/k2 coupled fit across all regions, further referred to as 2TCM and 2TCM-c), and Logan graphical analysis with a fixed t* at 60 min [33] using the arterial plasma input function corrected for radio-metabolites to derive the volume of distribution in each region. Percentage standard error (%SE) was estimated from the theoretical parameter covariance matrix. Only reliable estimates (%SE less than 25%) were included in the current analyses. For the three drug studies, percent displacement of the total activity in the whole brain was estimated relative to an average baseline constructed from the two 4 h baseline studies. Briefly, Standardized Uptake Value (SUV) time activity curves (TACs) were calculated for the two baseline and the three displacement studies. Then, each curve was normalized to the SUV at t = 90 min, corresponding to the timeframe immediately before the administration of the drugs in the displacement studies. Baseline curves were averaged and the percent displacement of total activity was calculated as (baseline-displacement)/baseline at a given time post drug administration (see “Results”).
Statistical analysis was performed using R software (version 3.3.1.). Plasma, intact parent fraction and time activity curves were statistically compared between subjects using a one-factor variance analysis. Absolute Test–Retest variability (aTRV) of PET quantification parameters was calculated as ABS(test—retest) / AVERAGE(test, retest). […]

[1] = Cerebellum, Retest, individual NHP
[2] = Cerebellum, Test, individual NHP
[3] = Frontal Cortex, Retest, individual NHP
[4] = Frontal Cortex, Test, individual NHP

T1 sequence (Q4R4X3 whole entry): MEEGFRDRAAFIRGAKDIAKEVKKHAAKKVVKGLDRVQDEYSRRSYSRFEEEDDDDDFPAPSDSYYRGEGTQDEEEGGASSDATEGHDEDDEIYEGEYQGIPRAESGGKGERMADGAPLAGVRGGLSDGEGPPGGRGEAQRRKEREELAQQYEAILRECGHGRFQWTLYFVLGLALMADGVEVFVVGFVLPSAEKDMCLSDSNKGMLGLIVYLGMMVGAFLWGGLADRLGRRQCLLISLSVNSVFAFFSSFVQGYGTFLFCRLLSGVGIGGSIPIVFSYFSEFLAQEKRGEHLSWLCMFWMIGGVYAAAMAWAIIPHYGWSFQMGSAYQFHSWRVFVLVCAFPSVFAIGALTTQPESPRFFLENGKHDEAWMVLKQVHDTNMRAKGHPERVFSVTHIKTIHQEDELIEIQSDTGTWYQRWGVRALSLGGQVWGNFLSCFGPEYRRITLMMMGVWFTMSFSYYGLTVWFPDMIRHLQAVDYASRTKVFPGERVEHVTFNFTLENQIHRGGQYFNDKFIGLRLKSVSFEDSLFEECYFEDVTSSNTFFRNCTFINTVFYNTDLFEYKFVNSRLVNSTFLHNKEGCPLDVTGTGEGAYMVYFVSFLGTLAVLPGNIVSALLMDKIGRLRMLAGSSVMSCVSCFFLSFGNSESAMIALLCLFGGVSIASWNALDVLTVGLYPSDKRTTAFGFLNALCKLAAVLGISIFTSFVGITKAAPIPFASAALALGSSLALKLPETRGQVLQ

Which “aTRV of VT” value (1TCM) does the source give for `O=C1C[C@H](c2cc(F)c(F)c(F)c2)CN1Cc1ccncc1[18F]` [[^18F]UCB-H] here?
Its value is “above 10%”.

What about the “ICC of VT, overall” value (2TCM-c) of the same compound?
Its value is ~ 0.4.

And the “aTRV of VT, overall” value (2TCM-c)?
The value was ~ 17%.

And the “k3/k4 (surrogate of BPND), average” value (2TCM-c, average)?
The value was 1.07 ± 0.02 and 1.1.

What about the “ICC of Logan (t* = 60) VT” value (Cerebellum) of the same compound?
Its value is 0.32.

What about the “aTRV of Logan (t* = 60) VT” value (Cerebellum) of the same compound?
Its value is 14%.

And the “K1 (2TCM)” value [1]?
The value was 0.62 ml/cm^3 /min and 0.26 ml/cm^3 /min and 0.34 ml/cm^3 /min and 0.36 ml/cm^3 /min.

What about the “K1 (2TCM-c)” value [1] of the same compound?
The value was 0.58 ml/cm^3 /min and 0.24 ml/cm^3 /min and 0.34 ml/cm^3 /min and 0.36 ml/cm^3 /min.

What about the “K1/k2 (2TCM)” value [1] of the same compound?
The value was 6.41 ml/cm^3 and 10.80 ml/cm^3 and 8.77 ml/cm^3.

What about the “K1/k2 (2TCM-c)” value [1] of the same compound?
The value was 4.64 ml/cm^3 and 9.07 ml/cm^3 and 10.70 ml/cm^3 and 7.25 ml/cm^3.

What about the “VT (1TCM)” value [1] of the same compound?
The value was 12.10 ml/cm^3 and 9.16 ml/cm^3 and 11.41 ml/cm^3 and 8.78 ml/cm^3.

What about the “VT (2TCM)” value [1] of the same compound?
Its value is 12.28 ml/cm^3.

And the “VT (2TCM-c)” value [1]?
The value was 12.24 ml/cm^3 and 18.89 ml/cm^3 and 8.78 ml/cm^3.

And the “VT (Logan)” value [1]?
The value was 12.38 ml/cm3 and 11.31 ml/cm3 and 11.82 ml/cm3 and 8.96 ml/cm3.

What about the “k3/k4 (2TCM-c)” value [1] of the same compound?
Its value is 1.64 and 0.80.

And the “VT (1TCM)” value (Cerebellum, Retest, mean)?
Its value is 10.4 mL/cm^3.

What about the “VT (2TCM)” value (Cerebellum, Retest, mean) of the same compound?
The value was 12.3 mL/cm^3.

What about the “VT (2TCM-c)” value (Cerebellum, Retest, mean) of the same compound?
The value was 13.3 mL/cm^3.

And the “VT (Logan (t* = 60))” value (Cerebellum, Retest, mean)?
Its value is 11.1 mL/cm^3.

And the “k3/k4 (BPND) (2TCM-c)” value (Cerebellum, Retest, mean)?
Its value is 1.22.

And the “K1 (2TCM)” value [2]?
The value was 0.22 ml/cm^3 /min and 0.35 ml/cm^3 /min and 0.39 ml/cm^3 /min and 0.17 ml/cm^3 /min.

And the “K1 (2TCM-c)” value [2]?
The value was 0.23 ml/cm^3 /min and 0.33 ml/cm^3 /min and 0.39 ml/cm^3 /min and 0.17 ml/cm^3 /min.

And the “K1/k2 (2TCM)” value [2]?
Its value is 5.68 ml/cm^3 and 6.39 ml/cm^3 and 10.81 ml/cm^3 and 6.69 ml/cm^3.

And the “K1/k2 (2TCM-c)” value [2]?
Its value is 4.35 ml/cm^3 and 8.22 ml/cm^3 and 10.99 ml/cm^3 and 7.86 ml/cm^3.

What about the “VT (1TCM)” value [2] of the same compound?
Its value is 8.70 ml/cm^3 and 9.24 ml/cm^3 and 12.07 ml/cm^3 and 9.02 ml/cm^3.

What about the “VT (2TCM)” value [2] of the same compound?
Its value is 10.64 ml/cm^3 and 10.48 ml/cm^3.

What about the “VT (2TCM-c)” value [2] of the same compound?
The value was 9.72 ml/cm^3.

What about the “VT (Logan)” value [2] of the same compound?
Its value is 10.54 ml/cm3 and 10.32 ml/cm3 and 13.27 ml/cm3 and 10.85 ml/cm3.

And the “k3/k4 (2TCM)” value [2]?
The value was 0.87.

What about the “k3/k4 (2TCM-c)” value [2] of the same compound?
Its value is 1.24.

What about the “VT (1TCM)” value (Cerebellum, Test, mean) of the same compound?
Its value is 9.8 mL/cm^3.

And the “VT (2TCM)” value (Cerebellum, Test, mean)?
Its value is 10.6 mL/cm^3.

And the “VT (2TCM-c)” value (Cerebellum, Test, mean)?
The value was 9.70 mL/cm^3.

What about the “VT (Logan (t* = 60))” value (Cerebellum, Test, mean) of the same compound?
The value was 11.2 mL/cm^3.

And the “k3/k4 (BPND) (2TCM-c)” value (Cerebellum, Test, mean)?
The value was 1.24.

What about the “K1 (2TCM)” value [3] of the same compound?
The value was 0.45 ml/cm^3 /min and 0.42 ml/cm^3 /min and 0.31 ml/cm^3 /min and 0.37 ml/cm^3 /min.

What about the “K1 (2TCM-c)” value [3] of the same compound?
The value was 0.48 ml/cm^3 /min and 0.45 ml/cm^3 /min and 0.31 ml/cm^3 /min and 0.37 ml/cm^3 /min.

And the “K1/k2 (2TCM)” value [3]?
The value was 12.79 ml/cm^3 and 10.20 ml/cm^3.

And the “K1/k2 (2TCM-c)” value [3]?
The value was 4.64 ml/cm^3 and 9.07 ml/cm^3 and 10.70 ml/cm^3 and 7.25 ml/cm^3.

And the “VT (1TCM)” value [3]?
The value was 14.34 ml/cm^3 and 16.78 ml/cm^3 and 11.35 ml/cm^3 and 12.88 ml/cm^3.

What about the “VT (2TCM)” value [3] of the same compound?
The value was 14.38 ml/cm^3 and 12.14 ml/cm^3 and 12.88 ml/cm^3.

And the “VT (2TCM-c)” value [3]?
Its value is 14.39 ml/cm^3 and 18.59 ml/cm^3 and 12.71 ml/cm^3 and 12.90 ml/cm^3.

What about the “VT (Logan)” value [3] of the same compound?
Its value is 14.05 ml/cm3 and 20.21 ml/cm3 and 11.72 ml/cm3 and 13.18 ml/cm3.

And the “k3/k4 (2TCM-c)” value [3]?
Its value is 2.10 and 1.07 and 0.78.

And the “K1 (2TCM)” value [4]?
Its value is 0.24 ml/cm^3 /min and 0.53 ml/cm^3 /min and 0.38 ml/cm^3 /min and 0.22 ml/cm^3 /min.

What about the “K1 (2TCM-c)” value [4] of the same compound?
The value was 0.25 ml/cm^3 /min and 0.55 ml/cm^3 /min and 0.38 ml/cm^3 /min and 0.22 ml/cm^3 /min.

And the “K1/k2 (2TCM)” value [4]?
The value was 8.05 ml/cm^3 and 13.17 ml/cm^3 and 10.76 ml/cm^3 and 11.87 ml/cm^3.

And the “K1/k2 (2TCM-c)” value [4]?
The value was 4.35 ml/cm^3 and 8.22 ml/cm^3 and 10.99 ml/cm^3 and 7.86 ml/cm^3.

What about the “VT (1TCM)” value [4] of the same compound?
Its value is 10.97 ml/cm^3 and 18.41 ml/cm^3 and 12.04 ml/cm^3 and 13.68 ml/cm^3.

What about the “VT (2TCM)” value [4] of the same compound?
Its value is 12.58 ml/cm^3 and 19.94 ml/cm^3.

What about the “VT (2TCM-c)” value [4] of the same compound?
The value was 11.41 ml/cm^3 and 18.77 ml/cm^3 and 14.10 ml/cm^3.

And the “VT (Logan)” value [4]?
Its value is 12.20 ml/cm3 and 19.36 ml/cm3 and 13.14 ml/cm3 and 15.28 ml/cm3.

What about the “k3/k4 (2TCM)” value [4] of the same compound?
The value was 0.56.

What about the “k3/k4 (2TCM-c)” value [4] of the same compound?
Its value is 1.63 and 1.51 and 0.61.

What about the “ICC of 2TCM-c VT” value (Frontal cortex) of the same compound?
Its value is 0.84.

What about the “ICC of Logan (t* = 60) VT” value (Frontal cortex) of the same compound?
Its value is 0.89.

And the “aTRV of 2TCM-c VT” value (Frontal cortex)?
The value was 11%.

What about the “aTRV of Logan (t* = 60) VT” value (Frontal cortex) of the same compound?
Its value is 11%.

What about the “VT (1TCM)” value (Frontal cortex, Retest, mean) of the same compound?
Its value is 13.8 mL/cm^3.

From PMC8026785, “The pharmacokinetics of [^18F]UCB-H revisited in the healthy non-human primate brain” (EJNMMI Research, 2021)
